Experimental findings from patent US9351981B2, “Use of PKC-iota inhibitors for the treatment of breast cancer” (UNIVERSITY OF SOUTH FLORIDA, priority 2007, dated 2016) are described below.

For test [1], the system named is MDA-MB-468 breast cancer cells. The test can be described thus: Proliferation of MDA-MB-468 breast cancer cells after ICA-1, viable cell count by Trypan blue exclusion. It is filed as cell-based, human. The note with it: vs vehicle control. On the procedure:
Five thousand cells were plated in T-25 cm^2 flasks. Twenty-four hours post vehicle control or ICA-1 treatment, the number of viable cells was counted by Trypan blue exclusion. Data shown are the mean+/−SD of two independent experiments.
Briefly, MDA-MB-468 breast cancer cells were treated with 0.1 μM or 0.5 μM ICA-1. Cell viability and cell count were determined 24 hours following addition of either vehicle control or ICA-1.

The subject of a further test is IKK-α/IKK-β. The test can be described thus: Phosphorylation of IKK-α/IKK-β. It is filed as cell-based.
In test [2] the test system is cancer cells. In words: Chromatin condensation, DAPI staining of the nucleus. It is filed as cell-based. The source says:
(§1) In addition, the present inventors have discovered that ICA-1 promotes apoptosis of cancer cells.

For test [3], the system named is cancer cells. In words: DNA fragmentation, TUNEL assay. Format: cell-based.
Excerpt: as §1

Another test concerns the target T1, PKC-ι (Homo sapiens, UniProt P41743).
T1 sequence (P41743 10-596 limits assumed): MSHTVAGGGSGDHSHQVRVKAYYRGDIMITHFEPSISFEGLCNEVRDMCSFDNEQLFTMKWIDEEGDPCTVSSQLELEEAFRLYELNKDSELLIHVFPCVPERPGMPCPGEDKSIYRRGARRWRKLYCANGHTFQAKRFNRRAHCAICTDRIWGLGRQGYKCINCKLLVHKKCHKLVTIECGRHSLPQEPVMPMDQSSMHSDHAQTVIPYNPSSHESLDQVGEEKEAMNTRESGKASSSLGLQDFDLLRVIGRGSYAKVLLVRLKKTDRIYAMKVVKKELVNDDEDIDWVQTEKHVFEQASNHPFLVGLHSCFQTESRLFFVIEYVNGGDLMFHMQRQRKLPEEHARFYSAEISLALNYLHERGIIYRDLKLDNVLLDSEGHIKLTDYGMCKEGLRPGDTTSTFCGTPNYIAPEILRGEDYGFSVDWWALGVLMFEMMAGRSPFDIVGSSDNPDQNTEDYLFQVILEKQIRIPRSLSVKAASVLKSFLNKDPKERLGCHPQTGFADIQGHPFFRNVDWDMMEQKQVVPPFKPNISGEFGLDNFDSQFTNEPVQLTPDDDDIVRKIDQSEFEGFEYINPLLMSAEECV
The test can be described thus: Inhibition of PKC-ι activity. It is filed as biochemical.

In the case of `NC(=O)c1ncn(C2CC(COP(=O)(O)O)C(O)C2O)c1N` (stereo not drawn) [ICA-1, 1H-imidazole-4-carboxamide,5-amino-1-[2,3-dihydroxy-4-[(phosphonooxy)methyl]cyclopentyl]-,[1R-(1α, 2β, 3β, 4α)]], the “decrease of proliferation of MDA-MB-468 cells” value in test [1] (0.1 μM ICA-1, 24 hours post-treatment) is 77%; in test [1] (0.5 μM ICA-1, 24 hours post-treatment, P=0.05), 50%. For the same compound, the “phosphorylation of IKK-α/IKK-β” value with IKK-α/IKK-β is “inhibits the phosphorylation”. The “chromatin condensation in cancer cells” value with cancer cells [2] was “induced chromatin condensation”. In the test with cancer cells [3], the “DNA fragmentation in cancer cells” value was “induced DNA fragmentation”. In addition, the “activity of PKC-ι” value at PKC-ι is “potently inhibits”.
